Laboratory results published in patent US20110123617A1, “CLIOQUINOL FOR THE TREATMENT OF HEMATOLOGICAL MALIGNANCIES” (priority 2007, published 2011).

Key:
MY5 cells = experiment: Apoptosis by Annexin V and PI staining and flow cytometry; assay type: cell-based
Protocol: (TM) (20 μM). Apoptosis was measured by Annexin V and PI staining and flow cytometry. Cell viability was assessed with the CellTiter96® Aqueous Non-Radioactive Assay kit according to manufactures' instructions (Promega). Apoptosis was measured by flow cytometry to detect cell surface Annexin V expression and propidium iodide (PI) uptake (Biovision, Mountain View, Calif., USA) as previously described (20)

[1] = test system: MDAY-D2 murine leukemia cells
Protocol: DBA-2 mice were injected intraperitoneally with MDAY-D2 murine leukemia cells. Mice were then treated twice daily by oral gavage with clioquinol (100 mg/kg) dissolved in intralipid or intralipid control. Ten days after treatment, mice were sacrificed, the intraperitoneal tumor excised, and the weight and volume of the tumor measured.
MDAY-D2 leukemia cells were injected intraperitoneally into DBA2 mice. Mice were then treated twice daily with oral clioquinol (100 mg/kg) for 10 days. Ten days after treatment, mice were sacrificed and the weight and volume of the intraperitoneal tumor was measured (FIG. 7). […] K562 leukemia cells were injected subcutaneous into sublethally irradiated […] mice. The clioquinol treatment was initiated when tumors reached volumes of 200 mm^3 at which time mice were randomized to receive 100 mg/kg of clioquinol (treated group) or buffer control (untreated group) for 5 of 7 days. Caliper measurements were performed twice weekly to estimate tumor volume and differences compared between treated and untreated groups.

K562 leukemia cells = experiment: K562 leukemia xenograft; assay type: in vivo, mouse; details: 100 mg/kg for 5 of 7 days, subcutaneous K562
Source text: Similar results were obtained with a K562 leukemia xenograft.

cyclin D2 promoter = experiment: High throughput screen for inhibitors of cyclin D2 transactivation (luciferase assay); assay type: cell-based, mouse; details: NIH 3T3 cells over-expressing c-maf, ~5 μM, sixteen hours
Source text: The promoter of cyclin D2 (−894 to −4), containing c-maf responsive element sequence (MARE), was cloned from HeLa cell genomic DNA and subcloned into the pGL2 luciferase reporter vector (Promega, Madison, Wis.). This construct was co-transfected with pcDNA3.1 containing a neomycin resistance gene into NIH3T3 wild type cells and NIH3T3 cells stably over-expressing c-maf-IRES-GFP. Cells stably expressing c-maf, GFP, and luciferase were selected for further application. NIH3T3 cells stably expressing c-maf and the cyclin D2 promoter driving luciferase (13,000 cells per well) were plated in 96-well plates by the Biomek FX liquid handler (Beckman, Fullerton, Calif.). The same workstation was used for plate formatting and reagent distribution. […] After incubation, cyclin D2 transactivation was assessed by the luciferase assay and viability was assessed by the MTS assay. Luciferase activity was assessed according to the manufacturer's instructions (Promega, Madison, Wis.). […] After 10 min incubation, an equal volume of Bright-Glo Luciferase substrate (Promega) was added and the luminescence signal was detected with a 96-well Luminoskan luminescence plate reader (Thermo Labsystem, Waltham, Mass.) with a 5 second integration. […] Sixteen hours after the addition of the compounds, luciferase expression was measured as a marker of cyclin D2 transactivation. […]

[2] = test system: chymotrypsin-like activity of the proteasome; experiment: Proteasome activity in cell lysates (Suc-LLVY-AMC cleavage); assay type: biochemical; details: cell lysates from leukemia and myeloma cell lines
Protocol: A) Proteasome activity of MDAY-D2 and JJN3 cellular extracts after two hours of treatment with clioquinol (CQ), CuCl2 (Cu), or an equimolar concentration of CQ and Cu. After treatment, the preferential chymotrypsin-like substrate Suc-LLVY-AMC was added and the rate of free AMC was measured over time with a florescent spectrophotometric plate reader (excitation=380 nm, emission=460 nm). B) Proteasome activity of intact MDAY-D2 and JJN3 cells after two hours of treatment with clioquinol (CQ), CuCl2 (Cu), or an equimolar concentration of CQ and Cu. After treatment, the preferential chymotrypsin-like substrate Suc-LLVY-AMC was added and the rate of free AMC was measured over time with a florescent spectrophotometric plate reader (excitation=380 nm, emission=460 nm). […] The chymotrypsin-like activity of the proteasome was measured by incubating equal amounts of protein with the preferential chymotrypsin-like substrate Suc-LLVY-AMC in assay buffer (50 mM Tris-HCl, pH 7.5, 150 mM NaCl) for two hours. After incubation, […] and the rate of free AMC was measured over time with a florescent spectrophotometric plate reader (excitation=380 nm, emission=460 nm). […] The chymotrypsin-like activity of the proteasome was measured by monitoring the rate of cleavage of the fluorescent substrate Suc-LLVY-AMC.

Oc1c(I)cc(Cl)c2cccnc12 [clioquinol, 5-chloro-7-iodo-8-hydroxyquinoline]
clioquinol-induced cell death (MY5 cells; copper supplemented in the medium (CuCl2 20 μM)): enhanced the toxicity of clioquinol
viability of MY5 cells (MY5 cells; twenty-four hours): reduces the viability of MY5 cells
clioquinol-induced cell death (MY5 cells; with copper chelator tetrathiomoylbdate (20 μM)): abrogated clioquinol-induced cell death
tumor progression (weight and volume of intraperitoneal tumor) ([1]; 100 mg/kg oral twice daily for 10 days): delayed tumor progression
tumor weight ([1]; in vivo mouse model of leukemia): dramatically reduces tumor weight
tumor growth (tumor volume) (K562 leukemia cells): delayed tumor growth
cyclin D2 transactivation (luciferase expression) (cyclin D2 promoter): c-maf independent inhibitors of the cyclin D2 promoter
rate of Suc-LLVY-AMC cleavage [2]: inhibited the rate of Suc-LLVY-AMC cleavage
